Key:
Assay in all cases: Annexin V staining and flow cytometry (positive control)
Type in all cases: cell-based, human
Conditions in all cases: 100 nM, 24 hours
CCD-18Co = system: CCD-18Co
Experimental: (§1) Apoptosis in cells was assessed using an Annexin V Apoptosis Detection Kit (BD Pharmingen, San Jose, CA, USA) analyzed by using a BD Accuri C6 flow cytometer according to the manufacturer's instructions.
(§2) HCT-116 or SW48 were transfected with GFP empty vector or GFP-UBXN2A using the Neon electrotransfection system (HCT-116 and SW48) or lipofectamin 2000 (CCD-118-Co), achieving around 80% transfection efficiency. Apoptosis in cells was assessed using an Annexin V Apoptosis Detection Kit (BD Pharmingen, San Jose, CA) analyzed by a BD Accuri C6 flow cytometer according to the manufacturer's instructions. In each individual experiment, GFP expressing cells were first gated and then plotted versus Annexin V positive cells. 10,000 gated events were collected per sample. An apoptotic inducer, staurosporine (Sigma), was used as a positive control in all experiments.
(§3) FIG. 12: Annexin V staining and flow cytometry is a valid assay for measurement of early apoptosis. Un-transfected CCD-18Co, HCT-116, and SW48 cells were incubated with vehicle or staurosporine, a well-known inducer of apoptosis in a wide range of cell lines, for 24 hours. Subsequently, cells were stained with BD Biosciences Cy5 Annexin V and read on an Accuri C6 flow cytometer. Panel A. The histograms show a comparison of the distribution of Annexin V positive cells in un-transfected CCD-18Co, HCT-116 and SW48 cells (no gating). […] Panel C-D: We conducted a set of IP experiments to further confirm UBXN2A can only bind to the SBD domain and not the ATP domain. HCT-116 cells were transiently transfected with SBD domain or ATP domain of mot-2. After 36 hours, cell lysates were prepared followed by immunoprecipitation using anti-UBXN2A immobilized on magnetic protein G beads. Immunoprecipitation experiments verified UBXN2A binds to the SBD domain of mot-2 (amino acid residue 432-679) in HCT-116 cells and not the ATP domain (amino acid residue 1-437). This set of immunoprecipitation experiments verified results achieved in Y2H experiments. […]

HCT-116 = system: HCT-116
Experimental: as §1, §2, §3

SW48 = system: SW48
Experimental: as §1, §2, §3

Measured: apoptosis (Annexin V positive cells)

CN[C@@H]1C[C@H]2O[C@@](C)([C@@H]1OC)n1c3ccccc3c3c4c(c5c6ccccc6n2c5c31)C(=O)NC4 [staurosporine]
induce significant apoptosis: all assays above

— US12233129B2, “Methods and compositions for the treatment of cancer” (priority 2019, dated 2025)
